From patent US20250002507A1, “7,8-DIHYDRO-5H-1,6-NAPHTHYRIDINE DERIVATIVES AS POSITIVE ALLOSTERIC MODULATORS OF THE MUSCARINIC ACETYLCHOLINE RECEPTOR M4 FOR TREATING NEUROLOGICAL AND PSYCHIATRIC DISORDERS” (Vanderbilt University, priority 2021, published 2025)

Molecular target: T1, Human M4 (Homo sapiens, UniProt P08173)
T1 construct: expressed in transfected cells
T1 sequence (P08173 1-479): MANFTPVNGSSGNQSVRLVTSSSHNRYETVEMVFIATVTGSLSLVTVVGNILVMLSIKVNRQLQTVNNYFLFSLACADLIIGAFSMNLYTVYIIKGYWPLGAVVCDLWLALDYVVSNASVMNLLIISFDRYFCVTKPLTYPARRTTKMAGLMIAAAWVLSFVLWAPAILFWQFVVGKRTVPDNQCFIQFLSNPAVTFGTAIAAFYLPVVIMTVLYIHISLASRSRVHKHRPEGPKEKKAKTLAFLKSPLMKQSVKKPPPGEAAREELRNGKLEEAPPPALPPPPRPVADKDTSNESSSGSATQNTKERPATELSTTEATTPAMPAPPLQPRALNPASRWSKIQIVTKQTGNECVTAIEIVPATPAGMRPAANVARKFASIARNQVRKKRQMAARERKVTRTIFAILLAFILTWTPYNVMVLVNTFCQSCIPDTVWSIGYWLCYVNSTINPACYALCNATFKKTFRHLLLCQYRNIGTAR
Experiment: mAChR M4 cell-based functional assay (calcium flux, potentiation of EC20 acetylcholine response), hM4-Gqi5 CHO-K1 cells
Conditions: for Emax at 30 µM: CHO-K1, % ACh maximum at 30 μM, human M4, read-out: Emax; for EC50: hM4-Gqi5 CHO-K1 cells, calcium flux, PAM of EC20 acetylcholine, read-out: Human M4 EC50
Outline: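 CHO-K1 cells stably expressing human M4 with chimeric Gqi5, loaded with Fluo-4 AM 50 min at 37 °C; calcium flux read by FDSS. 11-point 1:3 compound curves added, then EC20 acetylcholine at 144 s; potentiation of the EC20 response fitted by four-parameter logistic to give EC50 and Emax.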

SMILES	Emax at 30 µM [%]	EC50 [nM]
Cc1ccc(F)c(Nc2cnc3c(c2)CN(c2nn4cnnc4c(C)c2C)CC3)c1 [Compound 69, 6-(7,8-dimethyl-[1,2,4]triazolo[4,3-b]pyridazin-6-yl)-N-(2-fluoro-5-methyl-phenyl)-7,8-dihydro-5H-1,6-naphthyridin-3-amine]	90	296
Cc1c(N2CCc3ncc(Nc4ccc(F)cc4F)cc3C2)nn2cnnc2c1C [Compound 70, N-(2,4-difluorophenyl)-6-(7,8-dimethyl-[1,2,4]triazolo[4,3-b]pyridazin-6-yl)-7,8-dihydro-5H-1,6-naphthyridin-3-amine]	101	205
[2H]c1nnc2c(C)c(C)c(N3CCc4ncc(Nc5ccccc5F)cc4C3)nn12 [Compound 71, 6-(3-deuterio-7,8-dimethyl-[1,2,4]triazolo[4,3-b]pyridazin-6-yl)-N-(2-fluorophenyl)-7,8-dihydro-5H-1,6-naphthyridin-3-amine]	102	65.6
[2H]c1nnc2c(C)c(C)c(N3CCc4ncc(Nc5cc(F)ccc5F)cc4C3)nn12 [Compound 72, 6-(3-deuterio-7,8-dimethyl-[1,2,4]triazolo[4,3-b]pyridazin-6-yl)-N-(2,5-difluorophenyl)-7,8-dihydro-5H-1,6-naphthyridin-3-amine]	97	49.7
[2H]c1nnc2c(C)c(C)c(N3CCc4ncc(Nc5cc(F)cc(F)c5F)cc4C3)nn12 [Compound 73, 6-(3-deuterio-7,8-dimethyl-[1,2,4]triazolo[4,3-b]pyridazin-6-yl)-N-(2,3,5-trifluorophenyl)-7,8-dihydro-5H-1,6-naphthyridin-3-amine]	92	114
[2H]c1nnc2c(C)c(C)c(N3CCc4ncc(-c5c(C)noc5C)cc4C3)nn12 [Compound 74, 4-[6-(3-deuterio-7,8-dimethyl-[1,2,4]triazolo[4,3-b]pyridazin-6-yl)-7,8-dihydro-5H-1,6-naphthyridin-3-yl]-3,5-dimethyl-isoxazole]	103	108
[2H]c1nnc2c(C)c(C)c(N3CCc4ncc(-c5cnn(CC6CC6)c5)cc4C3)nn12 [Compound 77, 3-[1-(cyclopropylmethyl)pyrazol-4-yl]-6-(3-deuterio-7,8-dimethyl-[1,2,4]triazolo[4,3-b]pyridazin-6-yl)-7,8-dihydro-5H-1,6-naphthyridine]	89	216
Cc1c(N2CCc3ncc(Nc4ncccc4F)cc3C2)nn2cnnc2c1C [Compound 80, 6-(7,8-dimethyl-[1,2,4]triazolo[4,3-b]pyridazin-6-yl)-N-(3-fluoro-2-pyridyl)-7,8-dihydro-5H-1,6-naphthyridin-3-amine]	72	176
Cc1ccc(Nc2cnc3c(c2)CN(c2nn4cnnc4c(C)c2C)CC3)c(F)n1 [Compound 81, 6-(7,8-dimethyl-[1,2,4]triazolo[4,3-b]pyridazin-6-yl)-N-(2-fluoro-6-methyl-3-pyridyl)-7,8-dihydro-5H-1,6-naphthyridin-3-amine]	94	169
Cc1c(N2CCc3ncc(Nc4ccccc4F)cc3C2)nn2c(C)nnc2c1C [Compound 83, N-(2-fluorophenyl)-6-(3,7,8-trimethyl-[1,2,4]triazolo[4,3-b]pyridazin-6-yl)-7,8-dihydro-5H-1,6-naphthyridin-3-amine]	99	361
Cc1c(N2CCc3ncc(Nc4cc(F)cc(F)c4F)cc3C2)nn2c(C)nnc2c1C [Compound 85, N-(2,3,5-trifluorophenyl)-6-(3,7,8-trimethyl-[1,2,4]triazolo[4,3-b]pyridazin-6-yl)-7,8-dihydro-5H-1,6-naphthyridin-3-amine]	92	352
Cc1noc(C)c1-c1cnc2c(c1)CN(c1nn3c(C)nnc3c(C)c1C)CC2 [Compound 86, 3,5-dimethyl-4-[6-(3,7,8-trimethyl-[1,2,4]triazolo[4,3-b]pyridazin-6-yl)-7,8-dihydro-5H-1,6-naphthyridin-3-yl]isoxazole]	84	227
Cc1nn(C)c(C)c1-c1cnc2c(c1)CN(c1nn3c(C)nnc3c(C)c1C)CC2 [Compound 87, 3-(1,3,5-trimethylpyrazol-4-yl)-6-(3,7,8-trimethyl-[1,2,4]triazolo[4,3-b]pyridazin-6-yl)-7,8-dihydro-5H-1,6-naphthyridine]	89	188
Cc1nn(C)cc1-c1cnc2c(c1)CN(c1nn3c(C)nnc3c(C)c1C)CC2 [Compound 88, 3-(1,3-dimethylpyrazol-4-yl)-6-(3,7,8-trimethyl-[1,2,4]triazolo[4,3-b]pyridazin-6-yl)-7,8-dihydro-5H-1,6-naphthyridine]	97	195
Cc1c(N2CCc3ncc(-c4cnn(CC5CC5)c4)cc3C2)nn2c(C)nnc2c1C [Compound 89, 3-[1-(cyclopropylmethyl)pyrazol-4-yl]-6-(3,7,8-trimethyl-[1,2,4]triazolo[4,3-b]pyridazin-6-yl)-7,8-dihydro-5H-1,6-naphthyridine]	91	291
Cc1c(N2CCc3ncc(-c4cncs4)cc3C2)nn2c(C)nnc2c1C [Compound 90, 5-[6-(3,7,8-trimethyl-[1,2,4]triazolo[4,3-b]pyridazin-6-yl)-7,8-dihydro-5H-1,6-naphthyridin-3-yl]thiazole]	101	269
Cc1noc(C)c1-c1cnc2c(c1)CN(c1nn3c(C(F)(F)F)nnc3c(C)c1C)CC2 [Compound 92, 4-[6-[7,8-dimethyl-3-(trifluoromethyl)-[1,2,4]triazolo[4,3-b]pyridazin-6-yl]-7,8-dihydro-5H-1,6-naphthyridin-3-yl]-3,5-dimethyl-isoxazole]	79	199
Cc1nn(C)c(C)c1-c1cnc2c(c1)CN(c1nn3c(C(F)(F)F)nnc3c(C)c1C)CC2 [Compound 93, 6-[7,8-dimethyl-3-(trifluoromethyl)-[1,2,4]triazolo[4,3-b]pyridazin-6-yl]-3-(1,3,5-trimethylpyrazol-4-yl)-7,8-dihydro-5H-1,6-naphthyridine]	93	173

Continued by falling EC50, values first:

Emax at 30 µM [%]	EC50 [nM]	SMILES
106	1790	Cc1c(N2CCc3ncc(Nc4cc(F)cc(F)c4F)cc3C2)nn2c(C(F)(F)F)nnc2c1C [Compound 91, 6-[7,8-dimethyl-3-(trifluoromethyl)-[1,2,4]triazolo[4,3-b]pyridazin-6-yl]-N-(2,3,5-trifluorophenyl)-7,8-dihydro-5H-1,6-naphthyridin-3-amine]
96	386	Cc1c(N2CCc3ncc(Nc4ccc(Cl)cc4F)cc3C2)nn2cnnc2c1C [Compound 68, N-(4-chloro-2-fluoro-phenyl)-6-(7,8-dimethyl-[1,2,4]triazolo[4,3-b]pyridazin-6-yl)-7,8-dihydro-5H-1,6-naphthyridin-3-amine]
99	210	Cc1c(N2CCc3ncc(Nc4cc(F)ccc4F)cc3C2)nn2c(C)nnc2c1C [Compound 84, N-(2,5-difluorophenyl)-6-(3,7,8-trimethyl-[1,2,4]triazolo[4,3-b]pyridazin-6-yl)-7,8-dihydro-5H-1,6-naphthyridin-3-amine]
62	180	Cc1c(N2CCc3ncc(Nc4ncc(F)cc4F)cc3C2)nn2cnnc2c1C [Compound 79, N-(3,5-difluoro-2-pyridyl)-6-(7,8-dimethyl-[1,2,4]triazolo[4,3-b]pyridazin-6-yl)-7,8-dihydro-5H-1,6-naphthyridin-3-amine]
100	175	Cc1nn(C)cc1-c1cnc2c(c1)CN(c1nn3c(C(F)(F)F)nnc3c(C)c1C)CC2 [Compound 94, 3-(1,3-dimethylpyrazol-4-yl)-6-[7,8-dimethyl-3-(trifluoromethyl)-[1,2,4]triazolo[4,3-b]pyridazin-6-yl]-7,8-dihydro-5H-1,6-naphthyridine]
99	164	[2H]c1nnc2c(C)c(C)c(N3CCc4ncc(-c5c(C)nn(C)c5C)cc4C3)nn12 [Compound 75, 6-(3-deuterio-7,8-dimethyl-[1,2,4]triazolo[4,3-b]pyridazin-6-yl)-3-(1,3,5-trimethylpyrazol-4-yl)-7,8-dihydro-5H-1,6-naphthyridine]
101	127	[2H]c1nnc2c(C)c(C)c(N3CCc4ncc(-c5cn(C)nc5C)cc4C3)nn12 [Compound 76, 6-(3-deuterio-7,8-dimethyl-[1,2,4]triazolo[4,3-b]pyridazin-6-yl)-3-(1,3-dimethylpyrazol-4-yl)-7,8-dihydro-5H-1,6-naphthyridine]
99	119	Cc1c(N2CCc3ncc(Nc4cccnc4F)cc3C2)nn2cnnc2c1C [Compound 82, 6-(7,8-dimethyl-[1,2,4]triazolo[4,3-b]pyridazin-6-yl)-N-(2-fluoro-3-pyridyl)-7,8-dihydro-5H-1,6-naphthyridin-3-amine]
92	63.9	[2H]c1nnc2c(C)c(C)c(N3CCc4ncc(-c5cncs5)cc4C3)nn12 [Compound 78, 5-[6-(3-deuterio-7,8-dimethyl-[1,2,4]triazolo[4,3-b]pyridazin-6-yl)-7,8-dihydro-5H-1,6-naphthyridin-3-yl]thiazole]
